Laboratory results as given in patent US6846845B2, “Heat shock protein inducer” (Eisai Co., Ltd., priority 2002, dated 2005).

Columns and labels:
Type in all cases: in vivo, rat
iNOS = iNOS induction in the heart after oral administration (Western blotting); details: oral 200 mg/kg, 24 hours after administration, FIG. 4(A)
Excerpt: (§1) Monoclonal IgG antibody cross-reactive to HSP70, HSP60 and HSP27 antibodies was purchased from Stressgen Biotechnologies Corporation ([…], Canada). Primary antibodies of nitric oxide synthase (NOS) or in other words inducible NOS (iNOS), endothelial NOS (eNOS) and neuronal NOS (nNOS) were purchased from Transduction Laboratories (Lexington, Ky.). The primary antibody of thioredoxin was kindly provided by Professor Yodoi of Kyoto University.
(§2) An emulsion of 100% by weight of geranylgeranylacetone (GGA) with 5% by weight of gum arabic and 0.008% by weight of tocopherol was given orally to the rats described above. The oral dosages were 50 mg/kg, 100 mg/kg, 200 mg/kg and 400 mg/kg (GGA groups). […] The vehicle was administered orally to the Control Group.
(§3) Next, the hearts were removed from the killed rats and frozen in liquid nitrogen. […]
(§4) The total protein concentration of the myocardium was quantified by the Bradford method (Bradford M M. A rapid and sensitive method for quantitation of microgram quantities of protein utilizing the principle of protein-dye binding. Anal Biochem 1976; 72:248-254). […] The proteins were detected by exposing the ECL cells with Hyperfilm (Amersham Pharmacia, Buckinghamshire, UK). Based on this, the amount of proteins on the immunoblots was quantified using National Institutes of Health (NIH) imaging software. […]

eNOS = eNOS induction in the heart after oral administration (Western blotting); details: oral 200 mg/kg, 24 hours after administration, FIG. 4(A)
Excerpt: as §1, §2, §3, §4

[1] = test system: heat shock factor 1 (HSF1); assay: HSF1 phosphorylation and translocation in cytosolic and nuclear heart fractions (Western immunoblotting); details: 24 h after GGA 200 mg/kg oral or vehicle; chelerythrine 5 mg/kg i.v. pretreatment, FIG. 9
Experimental: Male Sprague-Dawley rats (220-250 g) were used. GGA, as an emulsion with 5% gum arabic and 0.008% tocopherol, was given orally at a dose of 200 mg/kg. Rats were classified into 4 groups. FIG. 7 is a diagrammatic representation of experimental protocol. […] Twenty-four hours after oral administration of GGA or vehicle, rats were anesthetized (sodium pentobarbital, 50 mg/kg IP) and heparinized (500 IU/kg IP). Hearts were excised, immediately frozen in liquid nitrogen, and stored at −70° C. until use for Western blot analysis (n=4 for each group). […]
To analyze the expression of HSP70, the frozen heart samples were homogenized with SDS sample buffer (pH 6.8, 20% glycerol, 6% SDS, 0.12M Tris), centrifuged and boiled (Maloyan A, Palmon A, Horowitz M. Heat acclimation increases the basal HSP70 level and alters its production dynamics during heat stress. Am J Physiol. 1999; 276:R1506-R1515.). […] The total protein concentration of heart was quantified by the Bradford method (Bradford MM. A rapid and sensitive method for quantitation of microgram quantities of protein utilizing the principle of protein-dye binding. Anal. Biochem. 1976;72:248-254). […] The proteins were detected by ECL with exposure to Hyperfilm (Amersham Pharmacia). The amount of protein on the immunoblots was quantified using National Institutes of Health image software. […]

PKC (α, β, γ and ε) = assay: Translocation of PKC isoforms α, β, γ and ε in particulate and cytosolic heart fractions (Western immunoblotting); details: 24 h after GGA 200 mg/kg oral or vehicle; chelerythrine 5 mg/kg i.v. pretreatment, FIG. 10

## CC(=O)CCC=C(C)CCC=C(C)CCC=C(C)CCC=C(C)C [GGA, 6, 10, 14, 18-tetramethyl-5,9, 13, 17-nonadecatetraen-2-one]
iNOS
  iNOS induction in the heart: neither iNOS nor eNOS was induced
eNOS
  eNOS induction in the heart: neither iNOS nor eNOS was induced
[1]
  amount of phosphorylated form of HSF1 in the nuclear fraction: increased
PKC (α, β, γ and ε)
  PKC isoforms α, β, γ and ε in cytosolic and particulate fractions: not influenced
